Results published in patent US20230174538A1, “Tricyclic heterocycles” (Merck Patent GmbH, priority 2020, published 2023).

The molecules below were run on YAP-TEAD interaction (assay: SK-HEP-1 reporter assay (8xTEAD responsive elements driving NanoLuc luciferase)). Conditions: Homo sapiens, SK-HEP1, SK-HEP-1 reporter assay.
Format: cell-based
Procedure: To identify inhibitors of YAP-TEAD interaction, 8×TEAD responsive elements driving the NanoLuc® luciferase gene were stably integrated into SK-HEP-1 cells (ECACC #: 91091816).
For the assay, cells were treated in duplicates with the test compounds in a 10-point dose, with the top concentration starting at 30 μM (final concentration in assay). After a 24 hour incubation at 37° C., 95% rH, and 5% CO2, a luciferase substrate/lysis reagent mix (NanoGlo™, Promega) was added to the cells, allowing the quantification of cellular luciferase activity.
Cell Media: The cells were cultured in the following media: MEM, +10% FBS, +1× GlutaMAX, +1 mM Sodium-Pyruvate, +100 μM Non-essential amino acids, +0.1 mg/ml Hygromycin. The media used for the assay was: MEM (w/o Phenol Red), +10% FBS, +1× GlutaMAX, +1 mM Sodium-Pyruvate, +100 μM Non-essential amino acids, +0.5% Pen/Strep
Reagents: The reagents used are listed below:
Cell culture: The cells were examined using an inverted microscope to check for health and cell density. To dissociate adherent cells, the monolayer of cells was washed once with pre-warmed PBS. After removing the PBS, 3 ml pre-warmed Accutase® was added to a F75 flask, dispersed evenly and the flask was allowed to sit in incubator for ˜4-5 minutes.
When a single cell suspension was obtained, 7 ml of prewarmed growth media was added and resuspended with the cells. The cell suspension was transferred to a sterile 15 ml conical centrifuge tube, and spun for 5 min at 300×g, RT. The supernatant was discarded and the pellet was resuspended in 10 ml of pre-warmed growth media.
The total cell count was determined, and 20 μl of the desired cell number was added to each well of a 384 well plate using a Multidrop Combi. The plates were then incubated for 24 hours at 37° C., 95% rH, and 5% CO2.
Compound treatment: 24 hours after seeding, the cells were treated with compounds.
A 1:333 dilution of compounds, diluted in DMSO, was made to get a final concentration of 0.3% DMSO per well. To transfer the compounds to the assay plate, 120 nl was shot from Labcyte low dead volume plates to the cell plates containing 20 μl media/well with the ECHO 555 liquid handling system.
After treatment, the cells were fed with 20 μl fresh pre-warmed assay media using a Multidrop combi.
The assay plates were then incubated for another 24 h at 37° C., 95% rH, and 5% CO2.
Luciferase readout: 24 h after treatment, the plates were taken out of the incubator and were allowed to equilibrate to RT. 30 μl of NanoGlo® reagent was added to the plates in the dark. Plates were shaken for 20 min on a Teleshake (˜1500 rpm) in the dark. The luminescence was then measured using an EnVision microplate reader. The IC50 values were generated using Genedata Screener®.

Compared with Cc1noc(CC2(NC(=O)c3ccc4c(c3)c3cn(C)nc3n4-c3ccc(C(F)(F)F)cc3)CC2)n1 [Example B77, 2-methyl-N-{1-[(3-methyl-1,2,4-oxadiazol-5-yl)methyl]cyclopropyl}-8-[4-(trifluoromethyl)phenyl]-2H,8H-pyrazolo[3,4-b]indole-5-carboxamide], Cn1cc2c3cc(C(=O)NC4(c5cncn5C)CC4)ccc3n(-c3ccc(C(F)(F)F)cc3)c2n1 [Example B70, 2-methyl-N-[1-(1-methyl-1H-imidazol-5-yl)cyclopropyl]-8-[4-(trifluoromethyl)phenyl]-2H,8H-pyrazolo[3,4-b]indole-5-carboxamide] is lower in IC50: over 10000 nM for the first, 100 to 10000 nM for the second.

CN1CCN(C(=O)c2ccc3c(c2)c2cn(C)nc2n3-c2ccc(C(F)(F)F)cc2)CC1CO (centres unmarked) [Example B65, (1-methyl-4-{2-methyl-8-[4-(trifluoromethyl)phenyl]-2H,8H-pyrazolo[3,4-b]indole-5-carbonyl}piperazin-2-yl)methanol] and Cn1cc2c3cc(C(=O)N4CCCC(OCC5CC5)C4)ccc3n(-c3ccc(C(F)(F)F)cc3)c2n1 (centres unmarked) [Example B62, 3-(cyclopropylmethoxy)-1-{2-methyl-8-[4-(trifluoromethyl)phenyl]-2H,8H-pyrazolo[3,4-b]indole-5-carbonyl}piperidine] cannot be ordered by IC50: over 10000 nM for the first, over 10000 nM for the second.

CC(NC(=O)c1ccc2c(c1)c1cn(C)nc1n2-c1ccc(C(F)(F)F)cc1)c1nn(C)cc1O (centres unmarked) [Example B14, N-[1-(4-hydroxy-1-methyl-1H-pyrazol-3-yl)ethyl]-2-methyl-8-[4-(trifluoromethyl)phenyl]-2H,8H-pyrazolo[3,4-b]indole-5-carboxamide] and Cc1ncncc1[C@@H](C)NC(=O)c1ccc2c(c1)c1cn(C)nc1n2-c1ccc(C(F)(F)F)cc1 [B118^] fall in the same range of IC50: 100 to 10000 nM for the first, 100 to 10000 nM for the second.

Cn1cc2c3cc(C(=O)NC4CCc5cn[nH]c5C4)ccc3n(-c3ccc(C(F)(F)F)cc3)c2n1 (centres unmarked) [Example B25, 2-methyl-N-(4,5,6,7-tetrahydro-1H-indazol-6-yl)-8-[4-(trifluoromethyl)phenyl]-2H,8H-pyrazolo[3,4-b]indole-5-carboxamide] and Cn1cc2c3cc(C(=O)NC4CCCc5c4cnn5C)ccc3n(-c3ccc(C(F)(F)F)cc3)c2n1 (centres unmarked) [Example B37, 2-methyl-N-(1-methyl-4,5,6,7-tetrahydro-1H-indazol-4-yl)-8-[4-(trifluoromethyl)phenyl]-2H,8H-pyrazolo[3,4-b]indole-5-carboxamide] fall in the same range of IC50: 100 to 10000 nM for the first, 100 to 10000 nM for the second.

CC(NC(=O)c1ccc2c(c1)c1cn(C)nc1n2-c1ccc(C(F)(F)F)cc1)c1ccc[nH]1 (centres unmarked) [Example B8, 2-methyl-N-[1-(1H-pyrrol-2-yl)ethyl]-8-[4-(trifluoromethyl)phenyl]-2H,8H-pyrazolo[3,4-b]indole-5-carboxamide] and Cn1cc2c3cc(C(=O)N4CCCC4c4ccc[nH]4)ccc3n(-c3ccc(C(F)(F)F)cc3)c2n1 (centres unmarked) [Example B13, 2-(1-{2-methyl-8-[4-(trifluoromethyl)-phenyl]-2H,8H-pyrazolo[3,4-b]indole-5-carbonyl}pyrrolidin-2-yl)-1H-pyrrole] fall in the same range of IC50: 100 to 10000 nM for the first, 100 to 10000 nM for the second.

Compared with CN(Cc1noc(C2CC2)n1)C(=O)c1ccc2c(c1)c1cn(C)nc1n2-c1ccc(C(F)(F)F)cc1 [B137^], Cn1cc2c3cc(C(=O)NCCc4nc(C5CC5)n[nH]4)ccc3n(-c3ccc(C(F)(F)F)cc3)c2n1 [Example B28, N-[2-(3-cyclopropyl-1H-1,2,4-triazol-5-yl)ethyl]-2-methyl-8-[4-(trifluoro-methyl)phenyl]-2H,8H-pyrazolo[3,4-b]indole-5-carboxamide] is lower in IC50: over 10000 nM for the first, 100 to 10000 nM for the second. The second is the more potent here.

First: Cn1cc2c3cc(C(=O)N4CC(O)C5(CCOCC5)C4)ccc3n(-c3ccc(C(F)(F)F)cc3)c2n1 (centres unmarked) [Example B56, 2-(2-methyl-8-[4-(trifluoromethyl)phenyl]-2H,8H-pyrazolo[3,4-b]indole-5-carbonyl}-8-oxa-2-azaspiro[4.5]decan-4-ol]
Second: Cn1cc2c3cc(C(=O)NCC4=CCOCC4)ccc3n(-c3ccc(C(F)(F)F)cc3)c2n1 [Example B58, N-[(3,6-dihydro-2H-pyran-4-yl)methyl]-2-methyl-8-[4-(trifluoromethyl)phenyl]-2H,8H-pyrazolo[3,4-b]indole-5-carboxamide]
The IC50 of the first is higher: over 10000 nM for the first, 1 to 10 nM for the second. The second is the more potent here.

Cn1cc2c3cc(C(=O)NCCc4c[nH]nn4)ccc3n(-c3ccc(C(F)(F)F)cc3)c2n1 [Example B11, 2-methyl-N-[2-(1H-1,2,3-triazol-4-yl)ethyl]-8-[4-(trifluoromethyl)phenyl]-2H,8H-pyrazolo[3,4-b]indole-5-carboxamide] and COCc1ocnc1CNC(=O)c1ccc2c(c1)c1cn(C)nc1n2-c1ccc(C(F)(F)F)cc1 [Example B49, N-{[5-(methoxymethyl)-1,3-oxazol-4-yl]methyl}-2-methyl-8-[4-(trifluoromethyl)phenyl]-2H,8H-pyrazolo[3,4-b]indole-5-carboxamide] fall in the same range of IC50: 10 to 100 nM for the first, 10 to 100 nM for the second.

Cc1cnc2n1CCC2NC(=O)c1ccc2c(c1)c1cn(C)nc1n2-c1ccc(C(F)(F)F)cc1 (centres unmarked) [Example B57, 2-methyl-N-(3-methyl-5H,6H,7H-pyrrolo[1,2-a]imidazol-7-yl}-8-[4-(trifluoromethyl)phenyl]-2H,8H-pyrazolo[3,4-b]indole-5-carboxamide] and Cn1cc2c3cc(C(=O)NCCn4ccc(C5CC5)n4)ccc3n(-c3ccc(C(F)(F)F)cc3)c2n1 [B107^] fall in the same range of IC50: 100 to 10000 nM for the first, 100 to 10000 nM for the second.

First: COc1nn(C)cc1CNC(=O)c1ccc2c(c1)c1cn(C)nc1n2-c1ccc(C(F)(F)F)cc1 [Example B93, N-[(3-methoxy-1-methyl-1H-pyrazol-4-yl)methyl]-2-methyl-8-[4-(trifluoromethyl)phenyl]-2H,8H-pyrazolo[3,4-b]indole-5-carboxamide]
Second: Cc1cnn(CC(C)NC(=O)c2ccc3c(c2)c2cn(C)nc2n3-c2ccc(C(F)(F)F)cc2)c1 (centres unmarked) [Example B66, 2-methyl-N-[1-(4-methyl-1H-pyrazol-1-yl)propan-2-yl]-8-[4-(trifluoromethyl)phenyl]-2H,8H-pyrazolo[3,4-b]indole-5-carboxamide]
The IC50 of the first is lower: 10 to 100 nM for the first, 100 to 10000 nM for the second. The first is the more potent here.

First: Cn1cc2c3cc(C(=O)NCc4n[nH]c5c4CCCC5)ccc3n(-c3ccc(C(F)(F)F)cc3)c2n1 [Example B29, 2-methyl-N-[(4,5,6,7-tetrahydro-1H-indazol-3-yl)methyl]-8-[4-(trifluoromethyl)phenyl]-2H,8H-pyrazolo[3,4-b]indole-5-carboxamide]
Second: Cn1cc2c3cc(C(=O)NCc4cc5ncccc5[nH]4)ccc3n(-c3ccc(C(F)(F)F)cc3)c2n1 [Example B6, 2-methyl-N-({1H-pyrrolo[3,2-b]pyridin-2-yl}methyl)-8-[4-(trifluoromethyl)phenyl]-2H,8H-pyrazolo[3,4-b]indole-5-carboxamide]
The IC50 of the first is higher: over 10000 nM for the first, 100 to 10000 nM for the second.

First: Cn1cc2c3cc(C(=O)N4[C@H](CO)C[C@@H]5CCCC[C@@H]54)ccc3n(-c3ccc(C(F)(F)F)cc3)c2n1 (single isomer, unassigned) [Example B32]
Second: Cn1cc2c3cc(NC(=O)CCl)ccc3n(-c3ccc(C(F)(F)F)cc3)c2n1 [Example 23, 2-chloro-N-[2-methyl-8-[4-(trifluoromethyl)phenyl]pyrazolo[3,4-b]indol-5-yl]acetamide]
The IC50 of the first is lower: 100 to 10000 nM for the first, over 10000 nM for the second. The first is the more potent here.

First: Cn1cc2c(n1)c1cc(C(=O)O)ccc1n2-c1ccc(C(F)(F)F)cc1 [Example 4, 2-methyl-4-[4-(trifluoromethyl)phenyl]-2H,4H-pyrazolo[4,3-b]indole-7-carboxylic acid]
Second: CCCc1nc(C)c(CNC(=O)c2ccc3c(c2)c2cn(C)nc2n3-c2ccc(C(F)(F)F)cc2)o1 [B124^]
The IC50 of the first is higher: 100 to 10000 nM for the first, 10 to 100 nM for the second. The second is the more potent here.
